# From ChEMBL document CHEMBL1201862, “PubChem BioAssay data set” (2004)
# Active and inactive are the calls of the source.
# Assays:
# [1] = target: T1, Calpain-2 catalytic subunit (Sus scrofa, UniProt P43367); assay: m-calpain protease blockers, concentration series – biochemical, fluorogenic peptide substrate, dose response (AID 1420); type: functional
# T1 sequence (P43367 whole entry): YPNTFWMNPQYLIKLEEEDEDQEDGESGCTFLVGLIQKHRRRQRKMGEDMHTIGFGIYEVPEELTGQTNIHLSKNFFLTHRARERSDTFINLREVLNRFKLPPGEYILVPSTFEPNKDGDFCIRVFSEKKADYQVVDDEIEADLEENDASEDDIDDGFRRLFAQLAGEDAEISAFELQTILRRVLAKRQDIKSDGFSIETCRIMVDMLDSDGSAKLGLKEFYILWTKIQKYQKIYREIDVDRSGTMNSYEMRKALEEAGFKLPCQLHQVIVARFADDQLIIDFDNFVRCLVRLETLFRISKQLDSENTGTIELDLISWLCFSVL
# [2] = target: T2, Mannose-6-phosphate isomerase (Homo sapiens, UniProt P34949); assay: MPI inhibition at elevated mannose 6-phosphate – biochemical, fluorescence intensity, high mannose 6-phosphate, primary screen (AID 1220)
# T2 sequence (P34949 whole entry): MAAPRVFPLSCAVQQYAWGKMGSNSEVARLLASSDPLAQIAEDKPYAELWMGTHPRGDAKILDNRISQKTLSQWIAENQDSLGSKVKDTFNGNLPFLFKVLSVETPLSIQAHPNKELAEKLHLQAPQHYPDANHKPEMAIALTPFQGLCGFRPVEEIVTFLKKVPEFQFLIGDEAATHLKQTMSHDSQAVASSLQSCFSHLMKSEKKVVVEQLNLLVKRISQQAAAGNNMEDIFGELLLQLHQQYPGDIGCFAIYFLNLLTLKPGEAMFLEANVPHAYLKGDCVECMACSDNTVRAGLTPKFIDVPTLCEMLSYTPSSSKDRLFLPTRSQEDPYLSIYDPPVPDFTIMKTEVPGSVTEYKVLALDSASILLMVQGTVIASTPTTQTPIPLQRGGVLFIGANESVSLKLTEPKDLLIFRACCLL
# [3] = cells; type: functional
# [4] = HPDE-C7 pancreatic duct cell viability loss – fluorescence, HTS (AID 430); type: functional, cell-based; settings: Homo sapiens
# [5] = microbe, parasite or virus in culture; type: functional; settings: Mycobacterium tuberculosis
# [6] = viability loss of HPDE-C7K cells – cell-based, fluorescence, HTS, primary screen (AID 431); type: functional; settings: Homo sapiens
# [7] = target: DNA dC->dU-editing enzyme APOBEC-3G (Homo sapiens, UniProt Q9HC16); assay: Dose Response confirmation of small molecule APOBEC3G DNA Deaminase Inhibitors via a fluorescence-based single-stranded DNA deaminase assay. [Related pubchem assays (depositor defined):AID493012, AID493028]; type: functional
# [8] = cells; type: functional, cell-based
# [9] = cells; type: functional, cell-based; remark: listed apart in the source
# [10] = target: Glucose-6-phosphate 1-dehydrogenase (Homo sapiens, UniProt P11413); assay: inhibition of Homo sapiens G6PD, dose series – biochemical, fluorescence, selectivity assay for P. falciparum G6PD inhibitor project, dose response (AID 504792); type: functional
# [11] = target: T3, Short transient receptor potential channel 4 (Mus musculus, UniProt Q9QUQ5); assay: block of DAMGO-driven TRPC4 calcium entry – cell-based, HEK293 TRPC4/mu-opioid, Fluo-4 calcium, dose response (AID 434942); type: functional;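 note: potency of inhibitors blocking the TRPC4 calcium response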
# T3 sequence (Q9QUQ5 whole entry): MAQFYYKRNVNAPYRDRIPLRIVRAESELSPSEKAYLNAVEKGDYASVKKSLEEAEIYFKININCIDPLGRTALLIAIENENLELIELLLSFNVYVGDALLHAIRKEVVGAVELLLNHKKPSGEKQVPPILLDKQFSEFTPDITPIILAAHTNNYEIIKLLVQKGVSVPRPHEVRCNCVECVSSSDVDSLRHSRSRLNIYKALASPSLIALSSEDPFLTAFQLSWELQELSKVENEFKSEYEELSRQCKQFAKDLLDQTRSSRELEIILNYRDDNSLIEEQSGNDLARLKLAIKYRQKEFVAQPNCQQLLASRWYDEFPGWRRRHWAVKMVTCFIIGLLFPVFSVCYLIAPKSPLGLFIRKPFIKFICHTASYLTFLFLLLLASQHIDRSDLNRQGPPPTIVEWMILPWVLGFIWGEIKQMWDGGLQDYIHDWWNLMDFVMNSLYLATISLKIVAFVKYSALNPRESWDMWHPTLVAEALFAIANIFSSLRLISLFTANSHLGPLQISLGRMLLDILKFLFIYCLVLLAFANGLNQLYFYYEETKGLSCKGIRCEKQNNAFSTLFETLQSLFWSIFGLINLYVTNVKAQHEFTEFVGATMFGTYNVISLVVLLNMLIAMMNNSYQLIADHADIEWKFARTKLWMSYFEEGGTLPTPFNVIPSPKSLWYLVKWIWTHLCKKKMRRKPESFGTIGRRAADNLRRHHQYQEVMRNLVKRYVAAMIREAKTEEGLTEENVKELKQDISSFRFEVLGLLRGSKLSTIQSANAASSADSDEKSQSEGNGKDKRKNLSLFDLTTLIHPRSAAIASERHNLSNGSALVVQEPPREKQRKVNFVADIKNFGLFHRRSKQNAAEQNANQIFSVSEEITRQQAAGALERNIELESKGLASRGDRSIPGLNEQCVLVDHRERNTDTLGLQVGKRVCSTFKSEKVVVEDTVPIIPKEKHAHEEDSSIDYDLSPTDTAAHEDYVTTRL
# [12] = HIV-1 Vif–A3G interaction blockers – biochemical, TR-FRET, GST-Vif 1-94, biotin-A3G peptide, dose response retest, primary screen (AID 1117319); type: functional;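 note: TR-FRET signal of purified GST-Vif binding a biotinylated A3G peptide; inhibitors lower the FRET signal by blocking Vif and A3G binding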
# [13] = target: Peroxisome proliferator-activated receptor gamma/Nuclear receptor coactivator 2 (Homo sapiens, UniProt P37231); type: functional;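 note: agonist potency for raising coactivator recruitment to the receptor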
# [14] = target: Peroxisome proliferator-activated receptor gamma/Nuclear receptor coactivator 1 (Homo sapiens, UniProt P37231); type: functional;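 note: agonist potency as compounds enhance coactivator SRC-1 recruitment to PPARgamma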
# [15] = target: Peroxisome proliferator-activated receptor gamma/Nuclear receptor coactivator 3 (Homo sapiens, UniProt P37231); type: functional;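 note: agonist potency for raising coactivator recruitment to the receptor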
# [16] = viability loss in Vero cells – cytotoxicity control for Vif-APOBEC3G degradation inhibitor project, dose response (AID 1117358); type: functional; settings: Vero
# [17] = off-target signal loss in HeLa-CEM21 co-culture – HeLa F-luc CTL cells, cherry-picked, counter-screen for HIV-1 Env fusion inhibitor project, dose response (AID 652040); type: functional, cell-based;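 note: potency for signal decrease marking cytotoxic or nonspecific inhibition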
# [18] = Luminescence Cell-Based Dose Retest to Confirm Inhibitors of Cancer Stem Cells. [Related pubchem assays (depositor defined):AID2717, AID2721]; type: functional; settings: Homo sapiens
# [19] = test system: Streptococcus sp. 'group A'; assay: Streptococcus pyogenes SK(-)GAS viability under kanamycin – luminescence, BacTiterGlo, confirmation, counter-screen for streptokinase expression inhibitor project, dose response (AID 1900); type: functional, organism-based
# [20] = target: Disintegrin and metalloproteinase domain-containing protein 17 (Homo sapiens, UniProt P78536); assay: inhibition of ADAM17 substrate cleavage – biochemical, quenched FRET substrate, counter-screen for ADAM10 exosite inhibitor project, dose response (AID 743253)
# [21] = target: T4, Streptokinase A (Streptococcus pyogenes serotype M1, UniProt P10520); assay: viability-normalized secreted streptokinase activity reduction – plasminogen activation absorbance, OD405, dose response (AID 1914); type: functional, Streptococcus pyogenes M1 GAS;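 note: secreted streptokinase activity via plasminogen activation per viability signal from cell pellet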
# T4 sequence (P10520 whole entry): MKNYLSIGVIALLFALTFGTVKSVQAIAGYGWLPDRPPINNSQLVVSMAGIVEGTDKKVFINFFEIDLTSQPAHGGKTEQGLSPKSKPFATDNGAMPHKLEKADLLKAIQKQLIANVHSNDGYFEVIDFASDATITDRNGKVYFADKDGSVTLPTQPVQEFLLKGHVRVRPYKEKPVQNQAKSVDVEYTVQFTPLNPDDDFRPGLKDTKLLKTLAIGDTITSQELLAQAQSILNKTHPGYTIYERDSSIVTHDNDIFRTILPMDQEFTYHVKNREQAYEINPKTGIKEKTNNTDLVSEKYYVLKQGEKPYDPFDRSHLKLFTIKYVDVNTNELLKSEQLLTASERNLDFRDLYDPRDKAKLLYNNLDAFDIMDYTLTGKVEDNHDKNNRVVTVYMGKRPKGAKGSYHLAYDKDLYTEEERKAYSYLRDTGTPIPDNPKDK
# [22] = test system: Streptococcus; assay: GAS UMAA2166 growth inhibition – luminescence, BacTiterGlo, counter-screen for streptokinase expression inhibitor project, dose response (AID 1915); type: functional, organism-based;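 note: potency for reduction of bacterial viability or growth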
# [23] = NIH3T3 cell viability loss – ATP luminescence, mouse fibroblasts, counter-screen, dose response (AID 2010); type: functional, cell-based;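 note: cells exposed to compound for about 90 hours before reading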
# [24] = Trypanosoma cruzi growth suppression in host cells – NIH3T3 host cells, beta-gal luminescence, confirmation (AID 2044); type: functional, cell-based;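 note: intracellular parasites grown in NIH/3T3 mouse fibroblasts as host cells; luminescent beta-galactosidase reporter signal from transgenic T. cruzi replicating inside host cells; inhibitors lower the luminescence signal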
# [25] = target: T5, Leucine aminopeptidase (Plasmodium falciparum 3D7, UniProt Q8IL11); assay: P. falciparum M17LAP inhibitors, primary screen, biochemical, fluorogenic H-Leu-NHMec substrate, 1536-well (AID 1619); type: functional
# T5 sequence (Q8IL11 whole entry): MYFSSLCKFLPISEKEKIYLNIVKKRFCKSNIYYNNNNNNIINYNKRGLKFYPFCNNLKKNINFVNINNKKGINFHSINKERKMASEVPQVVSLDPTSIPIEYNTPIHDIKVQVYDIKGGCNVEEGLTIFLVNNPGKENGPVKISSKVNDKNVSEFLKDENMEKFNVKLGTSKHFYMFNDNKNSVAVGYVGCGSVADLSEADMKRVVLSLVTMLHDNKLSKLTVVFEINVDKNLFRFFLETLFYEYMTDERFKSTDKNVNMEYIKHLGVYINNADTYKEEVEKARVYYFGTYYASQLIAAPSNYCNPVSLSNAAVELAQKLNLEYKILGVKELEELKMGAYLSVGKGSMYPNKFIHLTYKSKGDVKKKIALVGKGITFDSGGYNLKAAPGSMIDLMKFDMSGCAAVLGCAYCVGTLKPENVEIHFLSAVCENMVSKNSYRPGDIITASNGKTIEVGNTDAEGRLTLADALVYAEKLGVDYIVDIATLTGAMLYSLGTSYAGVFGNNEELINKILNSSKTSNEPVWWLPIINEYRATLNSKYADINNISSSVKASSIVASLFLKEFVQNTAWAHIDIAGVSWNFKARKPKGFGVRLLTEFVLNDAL
# [26] = target: Endoplasmic reticulum aminopeptidase 1 (Homo sapiens, UniProt Q9NZ08); assay: inhibition of human ERAP1 enzyme activity – biochemical, cherry-pick, set 2, plate reader, dose response (AID 743314)
# [27] = viability of uninfected HEp-2 cells – cell-based, HTS, cytotoxicity control for RSV inhibitor project, dose response (AID 2410); type: functional; settings: human respiratory syncytial virus
# Chain of Endoplasmic reticulum aminopeptidase 1 (Q9NZ08 whole entry): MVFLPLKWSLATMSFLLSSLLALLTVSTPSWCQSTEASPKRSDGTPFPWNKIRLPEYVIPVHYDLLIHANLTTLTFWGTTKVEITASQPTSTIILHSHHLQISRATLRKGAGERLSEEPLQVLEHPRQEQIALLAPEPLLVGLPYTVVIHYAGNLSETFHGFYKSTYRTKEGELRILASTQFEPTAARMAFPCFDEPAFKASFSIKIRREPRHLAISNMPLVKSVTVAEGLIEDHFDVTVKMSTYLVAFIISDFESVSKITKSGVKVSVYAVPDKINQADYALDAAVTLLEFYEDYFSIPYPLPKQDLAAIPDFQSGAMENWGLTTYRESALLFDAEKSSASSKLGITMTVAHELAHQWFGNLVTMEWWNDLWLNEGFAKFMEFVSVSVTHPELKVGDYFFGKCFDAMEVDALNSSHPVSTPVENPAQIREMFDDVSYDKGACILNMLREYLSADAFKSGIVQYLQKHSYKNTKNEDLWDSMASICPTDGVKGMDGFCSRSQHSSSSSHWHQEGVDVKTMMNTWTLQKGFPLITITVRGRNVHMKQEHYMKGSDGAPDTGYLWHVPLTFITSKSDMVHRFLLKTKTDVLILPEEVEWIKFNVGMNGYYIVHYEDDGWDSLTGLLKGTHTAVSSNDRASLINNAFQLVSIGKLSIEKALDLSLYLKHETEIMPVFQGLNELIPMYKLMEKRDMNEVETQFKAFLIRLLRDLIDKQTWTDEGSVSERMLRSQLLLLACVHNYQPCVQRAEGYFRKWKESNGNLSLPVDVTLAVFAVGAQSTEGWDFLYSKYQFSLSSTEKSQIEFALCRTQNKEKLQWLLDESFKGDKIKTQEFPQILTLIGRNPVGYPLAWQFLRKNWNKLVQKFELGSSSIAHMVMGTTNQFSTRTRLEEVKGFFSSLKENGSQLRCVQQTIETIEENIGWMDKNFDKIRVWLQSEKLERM
# Chain of Peroxisome proliferator-activated receptor gamma/Nuclear receptor coactivator 1 (P37231 whole entry): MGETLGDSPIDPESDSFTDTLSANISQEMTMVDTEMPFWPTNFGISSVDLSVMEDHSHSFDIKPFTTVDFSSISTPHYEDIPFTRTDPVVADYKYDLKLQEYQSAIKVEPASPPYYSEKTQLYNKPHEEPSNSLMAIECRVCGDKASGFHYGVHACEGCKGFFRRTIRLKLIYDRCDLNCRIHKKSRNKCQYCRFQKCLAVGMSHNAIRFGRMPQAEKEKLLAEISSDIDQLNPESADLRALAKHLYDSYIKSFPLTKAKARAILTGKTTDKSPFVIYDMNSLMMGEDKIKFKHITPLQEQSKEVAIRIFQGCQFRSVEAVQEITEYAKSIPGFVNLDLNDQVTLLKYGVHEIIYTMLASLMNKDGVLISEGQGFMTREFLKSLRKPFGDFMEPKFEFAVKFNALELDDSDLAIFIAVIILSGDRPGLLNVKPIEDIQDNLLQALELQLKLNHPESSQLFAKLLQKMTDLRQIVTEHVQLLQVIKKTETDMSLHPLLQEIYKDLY
# Chain of Peroxisome proliferator-activated receptor gamma/Nuclear receptor coactivator 1 (Q15788 whole entry, further chain): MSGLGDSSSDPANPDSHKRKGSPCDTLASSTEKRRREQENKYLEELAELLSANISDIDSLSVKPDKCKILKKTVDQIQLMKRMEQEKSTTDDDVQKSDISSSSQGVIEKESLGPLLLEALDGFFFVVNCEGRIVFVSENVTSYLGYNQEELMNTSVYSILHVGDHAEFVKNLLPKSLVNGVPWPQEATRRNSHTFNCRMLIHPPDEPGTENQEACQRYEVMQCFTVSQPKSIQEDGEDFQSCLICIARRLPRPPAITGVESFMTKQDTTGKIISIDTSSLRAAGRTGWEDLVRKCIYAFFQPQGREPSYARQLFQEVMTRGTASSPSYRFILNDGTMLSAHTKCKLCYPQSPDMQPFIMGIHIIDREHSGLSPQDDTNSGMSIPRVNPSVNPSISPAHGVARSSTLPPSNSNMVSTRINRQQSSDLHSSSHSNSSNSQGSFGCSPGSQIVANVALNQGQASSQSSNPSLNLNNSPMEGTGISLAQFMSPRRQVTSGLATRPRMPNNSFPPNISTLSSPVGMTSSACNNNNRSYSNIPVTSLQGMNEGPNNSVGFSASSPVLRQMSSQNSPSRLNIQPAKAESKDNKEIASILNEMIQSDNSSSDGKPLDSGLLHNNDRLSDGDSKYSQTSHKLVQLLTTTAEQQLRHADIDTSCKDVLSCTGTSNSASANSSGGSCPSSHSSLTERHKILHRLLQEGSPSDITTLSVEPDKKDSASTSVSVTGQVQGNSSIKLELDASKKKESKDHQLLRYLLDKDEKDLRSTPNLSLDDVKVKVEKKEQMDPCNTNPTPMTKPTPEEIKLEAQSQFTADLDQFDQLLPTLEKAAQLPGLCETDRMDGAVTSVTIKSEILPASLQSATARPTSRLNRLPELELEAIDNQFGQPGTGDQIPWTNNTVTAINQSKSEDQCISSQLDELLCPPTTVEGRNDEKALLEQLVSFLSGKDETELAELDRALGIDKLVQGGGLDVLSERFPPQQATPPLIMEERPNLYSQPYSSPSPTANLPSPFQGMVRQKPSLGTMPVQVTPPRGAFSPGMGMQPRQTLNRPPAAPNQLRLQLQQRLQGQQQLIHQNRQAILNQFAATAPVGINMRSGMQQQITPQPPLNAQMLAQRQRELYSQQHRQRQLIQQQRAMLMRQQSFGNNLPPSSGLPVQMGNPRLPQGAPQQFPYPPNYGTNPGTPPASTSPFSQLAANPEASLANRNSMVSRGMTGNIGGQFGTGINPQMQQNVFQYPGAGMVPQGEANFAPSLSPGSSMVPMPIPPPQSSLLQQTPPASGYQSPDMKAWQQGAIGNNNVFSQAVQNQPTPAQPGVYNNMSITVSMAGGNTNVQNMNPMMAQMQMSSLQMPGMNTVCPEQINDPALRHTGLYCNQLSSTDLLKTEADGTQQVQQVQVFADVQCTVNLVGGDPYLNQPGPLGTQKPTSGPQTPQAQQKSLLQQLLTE
# Chain of Peroxisome proliferator-activated receptor gamma/Nuclear receptor coactivator 3 (P37231 whole entry): as the sequence (P37231 whole entry) above
# Chain of Peroxisome proliferator-activated receptor gamma/Nuclear receptor coactivator 3 (Q9Y6Q9 whole entry, further chain): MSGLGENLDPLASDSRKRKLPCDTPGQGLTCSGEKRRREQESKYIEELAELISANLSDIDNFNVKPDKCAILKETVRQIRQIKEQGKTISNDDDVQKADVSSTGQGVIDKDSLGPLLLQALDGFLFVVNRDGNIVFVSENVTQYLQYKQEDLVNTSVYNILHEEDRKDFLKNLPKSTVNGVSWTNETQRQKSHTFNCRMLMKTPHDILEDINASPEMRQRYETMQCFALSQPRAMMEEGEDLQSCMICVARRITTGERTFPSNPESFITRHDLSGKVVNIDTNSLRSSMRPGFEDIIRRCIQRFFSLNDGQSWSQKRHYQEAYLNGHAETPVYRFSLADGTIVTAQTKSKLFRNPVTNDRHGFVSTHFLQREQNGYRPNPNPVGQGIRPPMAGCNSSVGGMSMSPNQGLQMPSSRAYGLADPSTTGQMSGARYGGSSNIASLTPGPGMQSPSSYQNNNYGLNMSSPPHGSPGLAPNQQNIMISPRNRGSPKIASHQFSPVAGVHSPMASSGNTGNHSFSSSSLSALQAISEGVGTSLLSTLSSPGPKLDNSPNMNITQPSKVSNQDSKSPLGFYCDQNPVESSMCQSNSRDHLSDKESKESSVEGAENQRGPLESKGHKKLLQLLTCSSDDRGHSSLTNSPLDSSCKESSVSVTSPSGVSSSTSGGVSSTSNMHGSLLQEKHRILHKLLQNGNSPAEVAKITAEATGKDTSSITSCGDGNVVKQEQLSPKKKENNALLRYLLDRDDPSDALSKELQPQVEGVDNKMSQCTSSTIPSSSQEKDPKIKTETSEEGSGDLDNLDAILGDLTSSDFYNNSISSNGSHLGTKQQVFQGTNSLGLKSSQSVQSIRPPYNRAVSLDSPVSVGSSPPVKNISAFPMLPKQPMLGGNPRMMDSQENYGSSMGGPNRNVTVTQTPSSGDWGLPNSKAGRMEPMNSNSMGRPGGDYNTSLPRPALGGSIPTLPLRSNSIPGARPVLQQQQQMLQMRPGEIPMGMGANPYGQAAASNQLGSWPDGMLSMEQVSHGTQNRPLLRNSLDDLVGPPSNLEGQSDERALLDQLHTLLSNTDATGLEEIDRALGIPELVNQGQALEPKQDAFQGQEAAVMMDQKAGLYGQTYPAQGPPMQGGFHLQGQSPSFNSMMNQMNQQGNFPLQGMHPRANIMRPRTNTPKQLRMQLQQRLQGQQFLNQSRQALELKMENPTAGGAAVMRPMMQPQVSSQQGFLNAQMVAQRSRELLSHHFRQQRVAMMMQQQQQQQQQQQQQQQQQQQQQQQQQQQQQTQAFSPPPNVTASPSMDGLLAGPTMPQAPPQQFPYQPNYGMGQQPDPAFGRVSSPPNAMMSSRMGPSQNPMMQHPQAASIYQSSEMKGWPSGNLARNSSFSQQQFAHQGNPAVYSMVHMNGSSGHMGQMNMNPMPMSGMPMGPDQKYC
structure (smiles),measurement,setting,value
COCCn1c(C)cc(C(=O)COC(=O)CNC(=O)c2ccccc2)c1C,IC50,[1],> 50 µM (not active)
Oc1ccc(F)c2cccnc12,IC50,[2],7.42 µM (active)
same,IC50,[3],4.21 µM (active)
CC(C)(C)c1ccc(Cn2nnc3c(O)nc(C4CCCN(C(=O)Cc5cccs5)C4)nc32)cc1 (stereo not given),EC50,[4],15.6 µM (active)
same,CC50,[5],> 40 µM (active)
same,EC50,[6],18.4 µM (active)
CCC(C)(C)c1nnc(NC(=O)C2CCN(C(=O)c3ccco3)CC2)s1,IC50,[7],25.9 µM (active)
same,EC50,[8],> 350 µM (not active)
same,EC50,[9],> 350 µM (not active)
same,IC50,[10],> 80 µM (inactive)
O=C(COC(=O)Cn1cnc2ccccc2c1=O)Nc1ccccc1Sc1ccc(Cl)cc1,EC50,[11],1.88 µM (active)
O=C(c1ccc(S(=O)(=O)N2CCOCC2)cc1)N1CCN(c2cccc(Cl)c2)CC1,IC50,[12],> 100 µM (active)
CCn1c(=N)n(CC(=O)c2ccc(Br)s2)c2ccccc21,EC50,[11],13.3 µM (active)
COC(=O)c1ccccc1NC(=O)c1cc(-c2ccc(O)cc2)on1,EC50,[13],31.5 µM (not active)
same,EC50,[14],24.9 µM (not active)
same,EC50,[15],33.6 µM (not active)
COC(=O)c1cnn2c(C)c(Cc3cccc(F)c3)c(C)nc12,CC50,[16],> 40 µM (active)
CCOC(=O)N1CCC(N2C(=O)c3ccccc3C2Nc2ccccc2)CC1 (stereo not given),IC50,[12],> 100 µM (active)
Cc1oc(-c2ccoc2)nc1CN(Cc1ccccc1)CC1CC1,EC50,[11],4.22 µM (active)
Cc1ccc(CN(C(=O)Cn2nnc3ccccc32)C(C(=O)NCc2ccco2)c2cccs2)cc1 (stereo not given),CC50,[16],> 40 µM (active)
CC(C)(C)NC(=O)c1ccc(Sc2ccccc2)c([N+](=O)[O-])c1,IC50,[1],11.9 µM (not active)
COc1ccc(OCC(=O)Nc2cc(-c3nn(C)c(=O)c4ccccc34)ccc2OC)cc1,EC50,[13],31.2 µM (not active)
same,EC50,[14],62.6 µM (not active)
same,EC50,[15],76.6 µM (not active)
same,AC50,[17],30.3 µM (active)
COc1ccc(CCN2C(=O)c3cccnc3C2=O)cc1OC,IC50,[12],> 100 µM (active)
O=[N+]([O-])c1ccc(S(=O)(=O)Nc2ccc(-c3csc(-c4ccccc4)n3)cc2)cc1,AC50,[18],2.33 µM (active)
same,EC50,[19],3.77 µM (active)
same,IC50,[20],> 69.5 µM (inactive)
same,EC50,[21],> 150 µM (not active)
same,EC50,[22],8.29 µM (active)
same,EC50,[23],> 60 µM (not active)
same,EC50,[24],0.118 µM (active)
CC(C)c1ccc(C(=O)CSc2nc[nH]n2)cc1,IC50,[2],9.69 µM (active)
same,IC50,[25],33 µM (active)
N#Cc1cn(CCOc2ccccc2F)c2ccccc12,CC50,[16],> 40 µM (active)
O=C(NCc1ccccc1)[C@@H]1[C@@H](CO)[C@@H]2Cn3c(ccc(/C=C/c4ccccc4)c3=O)[C@H]1N2CC1CC1,AC50,[26],11.1 µM (active)
CN1[C@H](C(=O)NC2CCC2)[C@@H](CO)[C@@H]2Cn3c(ccc(/C=C/c4ccccc4)c3=O)[C@@H]21,AC50,[26],18 µM (active)
CCN1[C@@H]2c3ccc(/C=C/c4ccccc4)c(=O)n3C[C@H]1[C@H](CO)[C@H]2C(=O)N1CCOCC1,AC50,[26],6.11 µM (active)
CCOC(=O)C1=C(C)N=C(C)/C(=C(/O)OC)C1c1cccc(Cl)c1Cl (stereo not given),EC50,[4],8.98 µM (active)
same,EC50,[6],10.4 µM (active)
CCOC(=O)c1c2c(c(=S)n(-c3ccccc3)c1N)CCC2,EC50,[4],10.4 µM (active)
same,CC50,[27],26.4 µM (active)
same,EC50,[6],9.88 µM (active)
same,IC50,[1],7.26 µM (not active)
